# Results: patent US5892071A, “Cationic transport reagents” (The Reagents of The University of California, priority 1995, dated 1999)
# Legend:
# NIH 3T3 fibroblasts = experiment: Hydrophobic and polar domain transfection analysis of PolyGum derivatives (luciferase specific activity, pGL3I+); format: cell-based, Murine; conditions: for transfection effectiveness ranking among methoxy PolyGum derivatives: 1 microgram plasmid DNA pGL3I+, 48 hours (FIG. 9)
# Description: (§1) Transfection activity was measured using the luciferase assay. Luciferase assays were performed with a luciferase assay kit (purchased from Analytical Luminescence Laboratories) using a Monolight 2010 luminometer (Analytical Luminescence Laboratories, San Diego, Calif.) according to the manufacturer's instructions. The media was removed from the transfected cells via aspiration. 0.5 mL of luciferase buffer/well was added, and the cells were placed on ice for 15 min. Luciferase light emissions from 100 μl of the lysate were measured using the luminometer.
# Shown in FIG. 9 are hydrophobic and polar domain transfection results for various synthesized PolyGum derivatives. In the tests, 1.0×10^5 NIH 3T3 fibroblasts were plated 24 hours prior to transfection. Cell lysates were obtained 48 hours after transfection and assayed for luciferase specific activity. The data presented in FIG. 9 corresponds to the ability of the subject cationic lipid to mediated delivery of 1 microgram of plasmid DNA (pGL3I+).
# NIH 3T3 cells = experiment: Luciferase transfection assay (pCMVL plasmid), NIH 3T3 cells; format: cell-based, Murine
# Description: NIH 3T3 cells were grown in Dulbecco's modified Eagles medium (DMEM)+10% fetal calf serum. The DNA plasmid pCMVL was prepared by standard methods and used as a 369 ng/μl solution in TE, pH=7.6. The luciferase reporter plasmid pCMVL was prepared at UC Davis, and consists of the P. pyralis luciferase cDNA subcloned into the plasmid pRc/CMV (Invitrogen).
# Multilamellar and small sonicated vesicles were prepared by addition of the cationic lipid DOHME together with DOPE, both as solutions in chloroform, to a 5 mL sample vial. The chloroform was removed via rotary evaporation with the water bath set at a constant temperature of 37° C. The resulting thin lipid films were placed under high vacuum overnight to insure that all traces of solvent had been removed. The lipid mixture was resuspended using distilled water ([…] total lipid/1 mL water) and vortex mixed to give a suspension of MLVs. This cloudy suspension was sonicated for fifteen minutes using a bath sonicator until a clear suspension containing SVs was obtained.
# Sequential addition of DMEM (with or without 10% fetal calf serum), pCMVL plasmid (for n=4, 4 μg), and liposome formulation into a 2 mL Eppendorf tube gave a total volume of 800 μl. The relative amount of liposome:pCMVL plasmid used was determined by the desired cationic lipid:DNA phosphate charge ratio. The mixing of these substances was followed by thorough vortexing.
# Usually, 24 well tissue culture plates containing 5.0×10^4 cells/well rapidly dividing adherent NIH 3T3 cells per well were transfected. The growth media was removed via aspiration and the cells were washed once with 0.5 mL PBS/well. […]
# as §1, with “The media was removed from the transfected cells via aspiration. 0.5 mL of luciferase buffer/well was added, and the cells were placed on ice for 15 min.” left out
# transfected cells = experiment: Alamar Blue toxicity assay; format: cell-based
# Description: Usually, 24 well tissue culture plates containing 5.0×10^4 cells/well rapidly dividing adherent NIH 3T3 cells per well were transfected. The growth media was removed via aspiration and the cells were washed once with 0.5 mL PBS/well. A 200 μl aliquot of liposome-DNAcomplex was added to each well and the cells were allowed to incubate for 4 hr. at 37° C. If desired, at this time, 1 mL of DMEM+10% fetal calf serum/well was added and the cells were allowed to incubate for an additional 48 hr, after which assays of toxicity and/or efficacy were performed. Equivalent procedures were utilized for the DU-145 cells.
# Alamar blue (Alamar Biosciences, Sacramento, Calif.), was diluted in cell culture media to 10%, added to cells, and incubated for up to two hours. Reduced dye was quantitated using a CytoFluor 2300 fluorescence plate reader with a 530 nm excitation filter and a 590 nm emission filter. Values expressed represent fluorescence less background. The same transfected cells can subsequently be assayed for reporter protein activity after Alamar Blue analysis.
structure (smiles),measurement,setting,value
CCCCCCCCCCCC(=O)OC(C[N+](C)(C)CCOC)C(C[N+](C)(C)CCOC)OC(=O)CCCCCCCCCCC (racemic) [DL-PG-Me],transfection effectiveness ranking among methoxy PolyGum derivatives,NIH 3T3 fibroblasts,least effective in transfection
"CCCCCCCC/C=C\CCCCCCCC(=O)OC(C[N+](C)(C)CCO)C(C[N+](C)(C)CCO)OC(=O)CCCCCCC/C=C\CCCCCCCC.[I-].[I-] (centres unmarked) [PolyGum, N,N,N',N'-tetramethyl-N,N'-bis(2-hydroxyethyl)-2,3-di(oleoyloxy)-1,4-butanediaminium iodide]",effect of serum on PolyGum (MLV) mediated transfection,"NIH 3T3 cells; MLV, serum-free versus 10% calf serum (FIG. 3)",greatly increased transfection is found with serum-free conditions than in the presence of 10% calf serum
same,efficiency of transfection as mole ratio of DOPE to PolyGum is increased,"NIH 3T3 cells; SV, serum-free (FIG. 5)",the efficiency of transfection is lowered in a generally linear fashion
same,effect of serum on PolyGum mediated transfection under other transfection conditions,"NIH 3T3 cells; other transfection conditions, with serum",little change is noted with serum transfection
same,toxicity versus LIPOFECTIN and several other amine containing vesicles,transfected cells; PolyGum MLV formulation,less toxicity
same,toxicity versus LIPOFECTIN and several other amine containing vesicles,transfected cells; PolyGum SV formulation,less toxicity
CCCCCCCCCCCCCCCC(=O)OC(C[N+](C)(C)CCOC)C(C[N+](C)(C)CCOC)OC(=O)CCCCCCCCCCCCCCC (centres unmarked) [DP-PG-Me],transfection effectiveness ranking among methoxy PolyGum derivatives,NIH 3T3 fibroblasts,most effective in transfection
CCCCCCCCCCCCCC(=O)OC(C[N+](C)(C)CCOC)C(C[N+](C)(C)CCOC)OC(=O)CCCCCCCCCCCCC (centres unmarked) [DM-PG-Me],"transfection efficiency, methoxy versus non-methoxy form",NIH 3T3 fibroblasts; DM-PG-Me versus DM-PG-OH (FIG. 9),more efficient in transfection than the non-methoxy form
